# From publication PMC7568863 (Chemical biology & drug design, 2020)
# How the values were obtained:
# [1] = tested on: SKMEL28 melanoma cell line; experiment: Cell apoptosis assay; type: cell-based; settings: IncuCyte Cytotox Green, Total Green Object Integrated Intensity; 30 h post-treatment; triplicates; preliminary assay
# Bfl-1 = settings: ref Barile et al., 2017; cited from earlier work
compound,measurement,setting,value
CC1(C)CCC(CN2CCN(c3ccc(C(=O)NS(=O)(=O)c4ccc(NCC5CCOCC5)c([N+](=O)[O-])c4)c(Oc4cnc5[nH]ccc5c4)c3)CC2)=C(c2ccc(Cl)cc2)C1 [ABT199],Induction of apoptosis / cell death in SKMEL28 cells,[1],inactive at the concentrations tested
same,Activity against Bfl-1,Bfl-1,inactive against Bfl-1
